Like-named read-outs stand apart in the source and are kept apart here. Marks after values point to notes of the source that are not given here.
Legend:
[1] = test system: methicillin-resistant Staphylococcal aureus
Procedure: Animals were inoculated intraperitoneally with 10×LD of Staphylococcal aureus suspended in brain-heart infusion broth containing 5 percent mucin. The antibiotic was administered s.c., i.p., or p.o., one hour following bacterial inoculation and deaths occurring during the subsequent three days are recorded.
Two control experiments were conducted. […] The number of survivors at 72 hours was determined. […] The number of survivors at 72 hours was again recorded.
Test mice were divided into 3 groups.

Candida albicans = Candida albicans intraperitoneal infection in guinea pigs; assay type: in vivo
Text: Two groups of guinea pigs were inoculated with Candida albicans by intraperitoneal injection. […] The other group was not treated.
Animals were sacrificed at day 5 and day 10. The peritoneal cavities were examined for signs of inflammation. These signs included number of infectious foci adherent to the omentum, exudate, fibrin deposition, quantitative fungal cultures, and the number of neutrophils, macrophages, and lymphocytes infiltrating the peritoneum.

[2] = Chronic pyoderma (staphylococcal skin diseases), clinical and immunological testing
Procedure: IM862 was used in the form of a 0.01% solution (100 μg of the preparation in one IV tube). The preparation was administered intranasally, daily, at 100 μg for a course of 5 days.
The effectiveness of IM862 use was evaluated according to the subjective impression of the patient, clinical findings, body temperature, general clinical and immunological testing of the peripheral blood. Also, bacteriological investigation of the disease agents were conducted before and after treatment with IM862.
IM862 was administered to 59 chronic pyoderma patients. […] The patients ranged in age from 18 to 56 years old. Thirty-two men and 27 women were studied. Duration of illness was from 5 months to 16 years.
For determining the norm of T- and B-system immunity and non-specific resistance, 175 healthy donors (men & women), aged 18 to 50 years, were examined. Lymphocytes were extracted from the heparinized (25 U/ml) peripheral blood of healthy and ill persons in a ficoll-urotrast density gradient. T-lymphocytes were identified by spontaneous rosette-formation with ram erythrocytes. The T-lymphocyte subpopulations were determined with the aid of mouse monoclonal antibodies, OKT4 and OKT8, as well as with the aid of a theophylline resistance test. B-lymphocytes were determined by rosette-formation with mouse erythrocytes. The B-lymphocyte subpopulations were determined according to the presence of various classes of immunoglobulins (Ig+, IgM^+, IgG^+, IgA^+) on their surfaces with the aid of monospecific antibodies. In serum, the content of the immunoglobulins M, G, & A, and the C3-component of complement was determined by using monospecific sera to human immunoglobulins with the radial immunodiffusion method. The percentage of migration inhibition in a LMIR with PHA and ConA was determined using the hemolytic staphylococcus allergen (HSA). The phagocytic activity of the neutrophils (percent and absolute quantity of phagocytic polymorphonuclear leukocytes) and the phagocytic index (mean quantity of microorganisms absorbed by a single phagocyte) were studied with the use of a museum culture of the “Oxford 209P” strain. Other analyzed parameters were the cationic protein content (MCC) in the neutrophils, the serum immune complexes (CIC), the natural killer activity (CI) by the 3H-uridine test, and the quantity of neutrophils forming rosettes with sheep erythrocytes.

[3] = Group 2: IM862 0.01 mg/kg 3 days before inoculation, ampicillin control (0), 5 test animals, 72 hours
[4] = Group 3: IM862 0.01 mg/kg 3 days + ampicillin 100 mg/kg 1 hr, 5 test animals, 72 hours
[5] = Group 4: IM862 0.01 mg/kg 3 days + ampicillin 10 mg/kg 1 hr, 5 test animals, 72 hours
[6] = Group 5: IM862 0.01 mg/kg 3 days + ampicillin 1 mg/kg 1 hr, 5 test animals, 72 hours
[7] = Group 6: IM862 0.001 mg/kg 3 days + ampicillin 100 mg/kg 1 hr, 5 test animals, 72 hours
[8] = Group 7: IM862 0.001 mg/kg 3 days + ampicillin 10 mg/kg 1 hr, 5 test animals, 72 hours
[9] = Group 8: IM862 0.001 mg/kg 3 days + ampicillin 1 mg/kg 1 hr, 5 test animals, 72 hours
[10] = Abscessing and indurative comedones
[11] = after IM862, phagocytosis with staph. cells
[12] = after treatment with IM862 (Table 21)

## Glu-Trp [IM862]
[1]; 0.01 mg/kg IM862 3 days prior to bacterial inoculum, no antibiotic
  Survivors: Four of 5 animals survived
[1]; [3]
  Percent ip Survivors: 80%
  Survivors: 4
[1]; [4]
  Percent ip Survivors: 100%
  Survivors: 5
[1]; [5]
  Percent ip Survivors: 100%
  Survivors: 5
[1]; [6]
  Percent ip Survivors: 100%
  Survivors: 5
[1]; [7]
  Percent ip Survivors: 100%
  Survivors: 5
[1]; [8]
  Percent ip Survivors: 100%
  Survivors: 5
[1]; [9]
  Percent ip Survivors: 100%
  Survivors: 5
Candida albicans; after 5 days
  inflammatory changes in the omentum: did not principally differ between the groups
Candida albicans; after 10 days
  quantitative fungal cultures: fewer fungi in the treated animals
Candida albicans; after 10 days, 1 μg/kg per day i.p. for four days
  inflammatory changes in the omentum: less pronounced than in untreated animals
[2]; [10]
  Considerable Improvement, number of patients: 1
  Recovery, number of patients: 4
  improvement, number of patients: 1
[2]; Chronic abscessing pyoderma
  Considerable Improvement, number of patients: 2
  Recovery, number of patients: 5
[2]; Chronic furunculosis
  Recovery, number of patients: 10
[2]; Chronic recurring folliculitis-deep
  Recovery, number of patients: 1
[2]; Chronic recurring osteofolliculitis
  Recovery, number of patients: 3
[2]; Chronic ulcerative pyoderma
  Considerable Improvement, number of patients: 2
[2]; Papulous-pustulous comedones
  Considerable Improvement, number of patients: 3
  Recovery, number of patients: 4
[2]; Total number of patients
  Considerable Improvement, number of patients: 8
  improvement, number of patients: 1
[2]; Total number of patients (36 resistant to standard therapy)
  Recovery, number of patients: 27
[2]; after IM862
  CIC units: 45.9 ± 4.9 units
  Cathion proteins MCC × 10^9/l: 1.46 ± 0.05^y
  Etr-RFC/Ets-RFC: 5.32 ± 1.00
  LMIF with ConA %: 58.3 ± 3.9^yy %
  LMIF with HSA %: 84.9 ± 5.5^yy %
  LMIF with PHA %: 40.2 ± 3.9^y %
  Lymphocytes %: 30.8 ± 1.4%
  Lymphocytes ×10^9/l: 2.41 ± 0.14 ×10^9/l
  Monocytes × 10^9/l: 0.43 ± 0.04 × 10^9/l
  NK-activity (CI) %: 45.18 ± 2.55^y %
  Neutrophils En-RFC %: 14.7 ± 1.6%
  Neutrophils En-RFC × 10^9/l: 0.7 ± 0.11 × 10^9/l
  Neutrophils × 10^9/l: 4.54 ± 0.25 × 10^9/l
  Phagocytic index % × 10^9/l: 5.31 ± 0.20^y
  T4/T8: 1.32 ± 011^y^
  T-helpers Etr-RFC %: 51.7 ± 2.8^y %
  T-helpers Etr-RFC ×10^9/l: 1.28 ± 0.09^y ×10^9/l
  T-helpers OKT4^+ %: 20.3 ± 2.9%
  T-helpers OKT4^+ ×10^9/l: 0.46 ± 0.05^y ×10^9/l
  T-lymphocytes E-RFC %: 69.3 ± 1.9^y %
  T-lymphocytes E-RFC ×10^9/l: 1.68 ± 0.12^y ×10^9/l
  T-suppressors Etr-RFC %: 17.9 ± 2.4%
  T-suppressors Etr-RFC ×10^9/l: 0.45 ± 0.08 ×10^9/l
  T-suppressors OKT8 %: 17.1 ± 1.9%
  T-suppressors OKT8 ×10^9/l: 0.39 ± 0.04 ×10^9/l
[2]; after IM862 (Table 22)
  Leukocytes ×10^9/l: 7.75 ± 0.33 ×10^9/l
[2]; after IM862 (Table 24)
  Monocytes %: 5.65 ± 0.40%
  Neutrophils %: 59.8 ± 1.6%
[2]; [11]
  Phagocytic activity* %: 48.9 ± 2.8%
  Phagocytic activity* × 10^9/l: 2.36 ± 0.27 × 10^9/l
[2]; after treatment with IM862
  B-lymphocytes (IgA^+) %: 2.4 ± 0.3%
  B-lymphocytes (IgA^+) ×10^9/l: 0.06 ± 0.008 ×10^9/l
  B-lymphocytes (IgG^+) %: 14.7 ± 2.16%
  B-lymphocytes (IgG^+) ×10^9/l: 0.19 ± 0.023^y ×10^9/l
  B-lymphocytes (IgM^+) %: 4.4 ± 0.6%
  B-lymphocytes (IgM^+) ×10^9/l: 0.10 ± 0.01 ×10^9/l
  B-lymphocytes (Ig^+) %: 16.9 ± 1.7%
  B-lymphocytes (Ig^+) ×10^9/l: 0.34 ± 0.05 ×10^9/l
  B-lymphocytes Em-RFC %: 12.1 ± 1.5%
  B-lymphocytes Em-RFC ×10^9/l: 0.28 ± 0.04 ×10^9/l
  Bacilli/nuclei %: 3.8 ± 0.6%
  Basophils %: 0.1 ± 0.1%
  Body temperature (morning): 36.2 ± 0.1
  ESP, mm/hr: 11.2 ± 1.4 mm/hr
  Erythrocytes ×10^12/l: 5.2 ± 0.6 ×10^12/l
  IgA: 2.40 ± 0.18 g/L
  IgG: 15.5 ± 0.73 g/L
  IgM: 1.25 ± 0.12 g/L
  Segm./nuclei %: 61.9 ± 1.4%
[2]; [12]
  Leukocytes ×10^9/l: 7.75 ± 0.36 ×10^9/l
  Monocytes %: 5.7 ± 0.4%
  Neutrophils %: 59.8 ± 1.6%
[2]; intranasally 100 μg daily, 5 days
  side effects / tolerance: No side effects from its use were noted in any of the patients
[2]; observation for 6 months after discharge
  relapses, number of patients: 3 patients
